System: polychromatic cells (PCEs)
Experiment: PCE count in blood by flow cytometry
Format: in vivo, mouse
Details: mice dosed with DMBA
Protocol: When two dyes are used for simultaneous micronucleus and PCE discrimination, the cell suspension is prepared as follows: The Hoechst 33258 working solution described above is prepared and is filtered through an 0.2 micron Acro-disk (Gilman Sciences). In addition, a propidium iodide (PI) working solution is prepared (5 mg PI/100 ml phosphate buffered saline (PBS)). A buffer-dye solution is then prepared by adding the PI solution (100 μl) and Hoechst 33258 working solution (25 μl) to PBS (867.5 μl). The resulting buffer-dye solution is then dispensed (992.5 μl) into samples tubes. A sample of fixed blood (15 μl) is then added to the corresponding tube. When blood from a malaria (P. berghei) infected mouse was fixed and stained by this procedure, the bivariate pattern shown in FIG. 1B resulted, in which a stronger red fluorescence signal was obtained. In this case, good resolution is achieved if BSA is omitted from the stained cell suspension. The pH of the stained solution is important for good fluorescence emission profiles and resolution of the different cell populations. With Hoechst 33258 and propidium iodide, good results can be obtained in the range from pH 6 to pH 8. Lower or higher pH levels cause a broadening of the fluorescence patterns which adversely affect the resolution of the PCes and micronucleated cells. Operationally,it is advisable to store the fixed samples and analyze freshly stained samples.
Although it is inappropriate to directly compare the number of MNs in the 0 hr and 96 hr samples because of this PCE change, it is possible to normalize the data to take into account said change. An increase in the number of PCEs will cause a decrease in the total number of MNs counted in the PCE window for a 96 hour sample. […]
Another staining embodiment of this invention involves the use of dual parameter data acquisition in conjunction with two dyes, Hoechst 33258 and propidium iodide so as to analyze both MNs and PCEs. […] Propidium iodide endows the PCEs with a strong red fluorescence signal which pulls them out of the RBC contour. […]

Compound: Cc1c2ccccc2c(C)c2c1ccc1ccccc12 [DMBA, dimethyl benzathracene]
- production of PCEs: production of PCEs is suppressed

— US5229265A, “Process for analyzing clastogenic agents” (Litron Laboratories, priority 1990, dated 1993)
